# Assay results reported in ChEMBL document CHEMBL4828726, “Modification of 5-methylphenanthridium from benzothiazoles to indoles as potent FtsZ inhibitors: Broadening the antibacterial spectrum toward vancomycin-resistant enterococci” (Eur J Med Chem, 2021).
# Calls of active or inactive are those of the source. The calls are words filed in the database; no cut-off is given here.
# Columns and labels:
# [1] = system: Bacillus subtilis; test: Antibacterial activity against penicillin-susceptible Bacillus subtilis ATCC 9372 assessed as inhibition of bacterial growth measured after 20 hrs by two-fold microdilution assay; type: functional
# [2] = system: Bacillus pumilus; test: Antibacterial activity against penicillin-susceptible Bacillus pumilus CMCC63202 assessed as inhibition of bacterial growth measured after 20 hrs by two-fold microdilution assay; type: functional
# [3] = system: Staphylococcus aureus; test: Antibacterial activity against erythromycin-susceptible Staphylococcus aureus ATCC 25923 assessed as inhibition of bacterial growth measured after 20 hrs by two-fold microdilution assay; type: functional
# [4] = system: Streptococcus pyogenes; test: Antibacterial activity against erythromycin-susceptible Streptococcus pyogenes assessed as inhibition of bacterial growth measured after 20 hrs by two-fold microdilution assay; type: functional
# [5] = system: Escherichia coli; test: Antibacterial activity against penicillin-susceptible Escherichia coli ATCC 25922 assessed as inhibition of bacterial growth measured after 20 hrs by two-fold microdilution assay; type: functional
# [6] = system: Pseudomonas aeruginosa; test: Antibacterial activity against penicillin-susceptible Pseudomonas aeruginosa ATCC 27853 assessed as inhibition of bacterial growth measured after 20 hrs by two-fold microdilution assay; type: functional
# [7] = system: Staphylococcus aureus; test: Antibacterial activity against methicillin-resistant Staphylococcus aureus ATCC43300 assessed as inhibition of bacterial growth measured after 20 hrs by two-fold microdilution assay; type: functional
# [8] = system: Staphylococcus aureus; test: Antibacterial activity against penicillin-resistant Staphylococcus aureus ATCC 31007 assessed as inhibition of bacterial growth measured after 20 hrs by two-fold microdilution assay; type: functional
# [9] = system: Staphylococcus aureus; test: Antibacterial activity against clinical isolate Staphylococcus aureus C1 assessed as inhibition of bacterial growth measured after 20 hrs by two-fold microdilution assay; type: functional
# [10] = system: Streptococcus pyogenes; test: Antibacterial activity against erythromycin-resistant Streptococcus pyogenes assessed as inhibition of bacterial growth measured after 20 hrs by two-fold microdilution assay; type: functional
# [11] = system: Staphylococcus epidermidis; test: Antibacterial activity against penicillin-resistant Staphylococcus epidermidis assessed as inhibition of bacterial growth measured after 20 hrs by two-fold microdilution assay; type: functional
# [12] = system: Enterococcus faecalis; test: Antibacterial activity against Vancomycin-susceptible Enterococcus faecalis ATCC 29212 assessed as inhibition of bacterial growth measured after 20 hrs by two-fold microdilution assay; type: functional
# [13] = system: Enterococcus faecium; test: Antibacterial activity against Vancomycin-susceptible Enterococcus faecium ATCC 19434 assessed as inhibition of bacterial growth measured after 20 hrs by two-fold microdilution assay; type: functional
# [14] = system: Enterococcus faecium; test: Antibacterial activity against Vancomycin-resistant Enterococcus faecium ATCC 51559 assessed as inhibition of bacterial growth measured after 20 hrs by two-fold microdilution assay; type: functional
# [15] = system: Enterococcus faecalis; test: Antibacterial activity against Vancomycin-resistant Enterococcus faecalis ATCC 51299 assessed as inhibition of bacterial growth measured after 20 hrs by two-fold microdilution assay; type: functional
# [16] = system: Bacillus subtilis; test: Bactericidal activity against penicillin-susceptible Bacillus subtilis ATCC 9372 assessed as inhibition of bacterial growth measured after 20 hrs by two-fold microdilution assay; type: functional
# [17] = system: Bacillus pumilus; test: Bactericidal activity against penicillin-susceptible Bacillus pumilus CMCC63202 assessed as inhibition of bacterial growth measured after 20 hrs by two-fold microdilution assay; type: functional
# [18] = system: Staphylococcus aureus; test: Bactericidal activity against erythromycin-susceptible Staphylococcus aureus ATCC 25923 assessed as inhibition of bacterial growth measured after 20 hrs by two-fold microdilution assay; type: functional
# [19] = system: Staphylococcus aureus; test: Bactericidal activity against methicillin-resistant Staphylococcus aureus ATCC43300 assessed as inhibition of bacterial growth measured after 20 hrs by two-fold microdilution assay; type: functional
# [20] = system: Staphylococcus aureus; test: Bactericidal activity against penicillin-resistant Staphylococcus aureus ATCC 31007 assessed as inhibition of bacterial growth measured after 20 hrs by two-fold microdilution assay; type: functional
# [21] = system: Bacillus subtilis; test: Ratio of MBC to MIC against penicillin-susceptible Bacillus subtilis ATCC 9372; type: functional
# [22] = system: Bacillus pumilus; test: Ratio of MBC to MIC against penicillin-susceptible Bacillus pumilus CMCC63202; type: functional
# [23] = system: Staphylococcus aureus; test: Ratio of MBC to MIC against erythromycin-susceptible Staphylococcus aureus ATCC 25923; type: functional
# [24] = system: Staphylococcus aureus; test: Ratio of MBC to MIC against methicilline-resistant Staphylococcus aureus ATCC43300; type: functional
# [25] = system: Staphylococcus aureus; test: Ratio of MBC to MIC against penicillin-resistant Staphylococcus aureus ATCC 31007; type: functional
# [26] = system: Enterococcus faecalis; test: Bactericidal activity against Vancomycin-susceptible Enterococcus faecalis ATCC 29212 assessed as inhibition of bacterial growth measured after 20 hrs by two-fold microdilution assay; type: functional
# [27] = system: Enterococcus faecium; test: Bactericidal activity against Vancomycin-susceptible Enterococcus faecium ATCC 19434 assessed as inhibition of bacterial growth measured after 20 hrs by two-fold microdilution assay; type: functional
# [28] = system: Enterococcus faecium; test: Bactericidal activity against Vancomycin-resistant Enterococcus faecium ATCC 51559 assessed as inhibition of bacterial growth measured after 20 hrs by two-fold microdilution assay; type: functional
# [29] = system: Enterococcus faecalis; test: Bactericidal activity against Vancomycin-resistant Enterococcus faecalis ATCC 51299 assessed as inhibition of bacterial growth measured after 20 hrs by two-fold microdilution assay; type: functional
# [30] = system: Enterococcus faecalis; test: Ratio of MBC to MIC against Vancomycin-susceptible Enterococcus faecalis ATCC 29212; type: functional
# [31] = system: Enterococcus faecium; test: Ratio of MBC to MIC against Vancomycin-susceptible Enterococcus faecium ATCC 19434; type: functional
# [32] = system: Enterococcus faecium; test: Ratio of MBC to MIC against Vancomycin-resistant Enterococcus faecium ATCC 51559; type: functional
# [33] = system: Enterococcus faecalis; test: Ratio of MBC to MIC against Vancomycin-resistant Enterococcus faecalis ATCC 51299; type: functional
# [34] = system: Staphylococcus aureus; test: Antibacterial activity against Staphylococcus aureus ATCC 25923 assessed as decrease of bacterial growth at 32 ug/ml measured up to 24 hrs by Time kill assay; type: functional, organism-based; settings: dose 32.0 µg/ml, time hrs <=24
# [35] = target: T1, Cell division protein FtsZ (Bacillus subtilis (strain 168)) (UniProt P17865); test: Inhibition of Bacillus subtilis FtsZ assessed as promotion of FtsZ polymerization at 10 ug/ml measured after […] by fluorescence spectrometer based light scattering assay; settings: dose 10.0 µg/ml
# T1 sequence (whole entry): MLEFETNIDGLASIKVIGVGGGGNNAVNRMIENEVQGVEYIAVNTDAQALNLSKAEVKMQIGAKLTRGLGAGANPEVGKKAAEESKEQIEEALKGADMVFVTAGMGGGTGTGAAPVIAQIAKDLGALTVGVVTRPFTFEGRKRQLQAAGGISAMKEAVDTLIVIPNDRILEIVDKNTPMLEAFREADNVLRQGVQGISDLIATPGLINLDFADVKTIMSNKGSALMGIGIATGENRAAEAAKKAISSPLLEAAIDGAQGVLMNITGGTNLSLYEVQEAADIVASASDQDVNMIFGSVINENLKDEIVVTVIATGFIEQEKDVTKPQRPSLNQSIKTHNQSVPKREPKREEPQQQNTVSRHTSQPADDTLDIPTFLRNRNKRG
# [36] = system: Staphylococcus aureus; test: Antibacterial activity against Staphylococcus aureus ATCC 25923 infected in Kunming mouse assessed as decrease in viable bacterial in eye blood at 5 mg/kg, ip measured after 1 hr; type: functional, organism-based
# [37] = system: Staphylococcus aureus; test: Antibacterial activity against Staphylococcus aureus ATCC 25923 assessed as fold change in MIC value measured after 14 passages by Multi passage resistance assay; type: functional, organism-based
# [38] = system: Staphylococcus aureus; test: Antibacterial activity against Staphylococcus aureus ATCC 25923 assessed as reduction of colony forming units at 4 to 64 ug/ml measured up to 24 hrs by Time kill assay; type: functional, organism-based; settings: dose 4-64 µg/ml, time hrs <=24
# [39] = system: Pseudomonas aeruginosa; test: Anti-biofilm activity against Pseudomonas aeruginosa ATCC 27853 assessed as inhibition of biofilm formation at 4 to 64 ug/ml measured after 20 hrs by crystal violet staining based biofilm formation inhibition assay; type: functional, organism-based; settings: dose 4-64 µg/ml
# [40] = Hemolytic activity against mouse RBC at 1 to 16 ug/ml measured after 1 hr by hemolysis assay relative to Triton X-100; type: ADME, cell-based, Erythrocyte; settings: mouse red blood cells (erythrocytes), at 1 to 16 µg/mL, dose 1-16 µg/ml, read-out: Activity
# [41] = system: Staphylococcus aureus; test: Antibacterial activity against Staphylococcus aureus ATCC 25923 infected in Kunming mouse assessed as decrease in viable bacterial in eye blood at 25 mg/kg, ip measured after 1 hr; type: functional, organism-based
# [42] = system: Bacillus pumilus; test: Inhibition of Bacillus pumilus CMCC63202 FtsZ assessed as change in morphology by measuring increase of cell length at 16 ug/ml measured after 20 hrs by optical microscopy; settings: dose 16.0 µg/ml
# [43] = target: T1, Cell division protein FtsZ (Bacillus subtilis (strain 168)); test: Inhibition of Bacillus subtilis FtsZ assessed as promotion of FtsZ polymerization measured after […] by fluorescence spectrometer based light scattering assay; settings: dose 2.5-10 µg/ml
# [44] = system: Bacillus pumilus; test: Inhibition of Bacillus pumilus CMCC63202 FtsZ assessed as aggregation of FtsZ at 10 ug/ml pre-incubated for 30 mins followed by addition of GTP and measured after 30 mins measured after by Transmission electron microscopic method; settings: dose 10.0 µg/ml
# [45] = system: Staphylococcus aureus; test: Antibacterial activity against Staphylococcus aureus ATCC 25923 assessed as decrease of bacterial growth measured up to 24 hrs by Time kill assay; type: functional, organism-based; settings: dose 4-32 µg/ml, time hrs <=24
# [46] = system: Staphylococcus aureus; test: Antibacterial activity against Staphylococcus aureus ATCC 25923 assessed as fold increase in MIC value measured after 1 passage by Multi passage resistance assay; type: functional
Compound,MIC [1] [µg/mL],MIC [2] [µg/mL],MIC [3] [µg/mL],MIC [4] [µg/mL],MIC [5] [µg/mL],MIC [6] [µg/mL],MIC [7] [µg/mL],MIC [8] [µg/mL],MIC [9] [µg/mL],MIC [10] [µg/mL],MIC [11] [µg/mL],MIC [12] [µg/mL],MIC [13] [µg/mL],MIC [14] [µg/mL],MIC [15] [µg/mL],MBC [16] [µg/mL],MBC [17] [µg/mL],MBC [18] [µg/mL],MBC [19] [µg/mL],MBC [20] [µg/mL],also measured
Cc1ccc2c[n+](C)c3ccc(-c4ccc5ccn(Cc6ccc(OC(F)(F)F)cc6)c5c4)cc3c2c1.[Cl-],4,4,2,8,> 64,> 64,4,4,4,8,2,4,4,4,4,4,32,4,4,4,Ratio [21]: 1; Ratio [22]: 8; Ratio [23]: 2; Ratio [24]: 1; Ratio [25]: 1; MBC [26]: 16 µg/mL; MBC [27]: 16 µg/mL; MBC [28]: 32 µg/mL; MBC [29]: 16 µg/mL; Ratio [30]: 4; Ratio [31]: 4; Ratio [32]: 8
Cc1ccc2c[n+](C)c3ccc(-c4ccc5ccn(Cc6ccc(C(F)(F)F)cc6)c5c4)cc3c2c1.[Cl-],8,2,2,8,> 64,> 64,4,8,2,8,2,4,2,4,4,> 8,16,4,8,16,Ratio [21]: 1; Ratio [22]: 8; Ratio [23]: 2; Ratio [25]: 4; MBC [26]: 16 µg/mL; MBC [27]: 16 µg/mL; MBC [28]: 32 µg/mL; MBC [29]: 32 µg/mL; Ratio [30]: 4; Ratio [31]: 8; Ratio [33]: 8
CC(=O)NC[C@H]1CN(c2ccc(N3CCOCC3)c(F)c2)C(=O)O1 [LINEZOLID],0.5,2,–,1,> 64,> 64,–,–,–,1,4,–,4,4,–,64,16,128,8,16,MBC [26]: 64 µg/mL; MBC [27]: > 64 µg/mL; MBC [28]: 64 µg/mL; MBC [29]: 64 µg/mL; Activity [34]: Active; inhibition [35]: inactive
Cc1cccc2c[n+](C)c3ccc(-c4ccc5ccn(Cc6ccccc6)c5c4)cc3c12.[Cl-],4,4,1,8,> 64,> 64,2,4,2,8,8,8,8,8,16,16,> 64,32,64,64,Activity [36]: Active; Activity [37]: Active; Ratio [21]: 4; Ratio [23]: 32; Ratio [25]: 16; Activity [38]: Active; Activity [39]: inactive; hemolysis at 1 h [40]: < 8%; Activity [41]: Active; inhibition [42]: Active; inhibition [43]: Active; inhibition [44]: Active; Activity [45]: Dose-Dependent Effect; fold change (FC) [46]: 2
